The text below walks through data of patent publication US10300130B2, “Cytomegalovirus vaccines and methods of production” (The Trustees of Princeton University, priority 2007, dated 2019).

One assay relates to BADrUL131. Description: Dependence of infection on endosome acidification (IE1-positive ARPE-19 cells), BADrUL131. Format: cell-based, HCMV. The following applies: 1 h pretreatment, 1 pfu/cell, IE1 16 h later. How it is done:
(§1) FIGS. 3A-3B. Effects of inhibitors of endosome acidification and virion source on HCMV entry into ARPE-19 cells. Experiments were performed in triplicate, and the number of positive cells in drug-treated relative to untreated cultures is reported. FIG. 3A: Cells were pretreated with NH4Cl or BFA for 1 h, inoculated with epiBADrUL131 or fibroBADrUL131 (1 pfu/cell) and stained for IE 1 16 h later. FIG. 3B: Cells were pretreated with 50 mM NH4Cl or 40 nM BFA for 1 h, and then inoculated with BADrUL131 (0.1 pfu/cell) or FIXwt (0.01 pfu/cell) produced in the indicated cell types and stained for IE1 16 h later.
(§2) ARPE-19 cells were pretreated with NH4Cl or Bafilomycin A1 (BFA) (Sigma) for 1 h at 37° C., followed by infection in the continued presence of the inhibitor. 16 h later, cultures were fixed in 2% paraformaldehyde and permeabilized with 0.1% Triton X-100. IE1 was identified by immunofluorescence using monoclonal antibody IB12 (21) plus Alexa 546-conjugated secondary antibody and nuclei were stained with DAPI. Inhibition was calculated as the percentage of IE1-expressing drug-treated relative to untreated cells.
Many viruses that enter cells by endocytosis (1, 4, 10) require acidification of endosomes for the virion envelope to fuse with the endosomal membrane and release the capsid into the cytoplasm. NH4Cl. which buffers endosomal pH, and bafilomycin A1 (BFA), which blocks the endosomal ATPase proton pump, were tested for their effect on infection of ARPE-19 cells. After pretreatment with either agent, cells were infected and cultured in drug containing medium for a further 16 h. Successful infections were scored by assaying for IE1-positive cells.

Another assay relates to BFXwt. Description: Dependence of infection on endosome acidification (IE1-positive ARPE-19 cells), BFXwt. The format is cell-based, HCMV. The following applies: 50 mM NH4Cl or 40 nM BFA, 0.01 pfu/cell. Here is the method: as §1, §2
The effect of endosomal pH on entry of the BFXwt clinical isolate into ARPE-19 cells was also assayed (FIG. 3B. right panel).

`CO/C1=C\C(C)=C\[C@@H](C)[C@@H](O)[C@@H](C)C/C(C)=C/C=C/[C@H](OC)[C@@H]([C@@H](C)[C@@H](O)[C@H](C)[C@@]2(O)C[C@@H](O)[C@H](C)[C@@H](C(C)C)O2)OC1=O` [BFA, Bafilomycin A1]: in the assay on BADrUL131, the “effect of pretreatment on epiBADrUL131 infection (IE1-positive cells)” value is reported as “only a modest effect” and the “effect of pretreatment on fibroBADrUL131 infection (IE1 expression)” value is listed as “inhibited IE1 expression”. Besides, in the assay on BFXwt, the “effect on number of IE1-positive ARPE-19 cells, epithelial cell-derived BFXwt” value was “only a slight inhibition” and the “effect on number of IE1-positive ARPE-19 cells, fibroblast-generated BFXwt” value is “significantly reduced”.

With `Cl.N` [NH4Cl], in the assay on BADrUL131, the “effect of pretreatment on epiBADrUL131 infection (IE1-positive cells)” value was “only a modest effect” and the “effect of pretreatment on fibroBADrUL131 infection (IE1 expression)” value is reported as “inhibited IE1 expression”. In the assay on BFXwt, the “effect on number of IE1-positive ARPE-19 cells, epithelial cell-derived BFXwt” value is “only a slight inhibition” and the “effect on number of IE1-positive ARPE-19 cells, fibroblast-generated BFXwt” value is “significantly reduced”.
